We go through 24 compounds from patent US11926619B2, “Certain pladienolide compounds and methods of use” (EISAI R&D MANAGEMENT CO., LTD., priority 2018, dated 2024).

The test system of test [1] is WiDr cells (colon cancer cells; wildtype SF3B1). Kind of test: Cell viability assay (CellTiter-Glo, 72 hr), WiDr cells. Type of test: cell-based. To be noted: Homo sapiens; WiDr cells (wildtype SF3B1); read-out: WiDr GI50. The gist of the method:
(§1)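 Cells at 2000/well were exposed to 9 compound concentrations (0.1% DMSO) in duplicate or triplicate for 72 hr at 37 °C. ATP was read by CellTiter-Glo against a time-zero plate and DMSO control growth. Percent growth/viability was plotted against concentration to give Emax; negative values indicate lethality.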

Test [2] deals with WiDr-R cells (colon cancer cells; chemically-induced SF3B1 R1074H mutant). Kind of test: Cell viability assay (CellTiter-Glo, 72 hr), resistant WiDr-R cells (counter-screen). The class given is cell-based. To be noted: WiDr-R cells (SF3B1 R1074H mutation, resistant); read-out: WiDr-R GI50. The method, boiled down:
as §1

Test [3] concerns Panc 05.04 cells (pancreatic cancer cells; Q699H and K700E mutations in SF3B1). The test is described as follows: Cell viability assay (CellTiter-Glo, 72 hr), Panc 05.04 cells. Particulars: Panc 05.04 cells (mutant SF3B1); for Emax: maximum achievable response in tested dose range, negative value = cellular lethality, read-out: Panc 05.04 (mt SF3B1 cells) Emax (%); for GI50: read-out: Panc 05.04 (mt SF3B1 cells), GI50. The class given is cell-based. The method, boiled down:
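Viability was read as ATP content (CellTiter-Glo) after 72 hr compound exposure of Panc 05.04 cells at 37 °C, nine concentrations, 0.1% DMSO. Percentage growth was referenced to time-zero and vehicle wells and plotted against concentration to obtain Emax; negative Emax denotes cell killing.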
(In ATP-based viability assays light output follows the ATP content of the culture.)

Another test deals with T1, SF3b complexes (Homo sapiens, UniProt O75533+Q7RTV0).
T1 construct: endogenous in cells
Kind of test: Scintillation proximity assay (SPA) with [3H]-labelled pladienolide probe. To be noted: wt SF3B1, read-out: SPA (wt SF3B1 cells) IC50. Type of test: binding. The protocol:
Batch immobilization of anti-SF3B1 antibody (MBL) to anti-mouse PVT SPA scintillation beads (PerkinElmer) was prepared as follows: for every 2.5 mg of nuclear extracts, 5 μg anti-SF3B1 antibody and 1.5 mg of beads were mixed in 150 μl PBS. The antibody-bead mixture was incubated for 30 min at RT and centrifuged at 18,000 g for 5 min. 150 μl PBS was used to resuspend every 1.5 mg antibody-bead mixture. The beads were suspended and added to the prepared nuclear extracts. The slurry was incubated for 2 h at 4° C. with gentle mixing. The beads were then collected by centrifuging at 18,000 g for 5 min, and washed twice with PBS+0.1% Triton X-100. After a final centrifugation step, every 1.5 mg of beads was suspended with 150 μl of PBS. The SF3b complexes were tested for [^3H]-labelled pladienolide probe binding ([^3H]-PB), synthesized as previously described (Kotake et al., 2007). 100 μL binding reactions were prepared with 50 μl bead slurry and by adding varying concentrations of PB or PB—OH, and after 30 min pre-incubation, 2.5 nM [^3H]—PB was added. The mixture was incubated for 30 min, and luminescence signals were read using a MicroBeta2 Plate Counter (PerkinElmer). Prism 6 (Graphpad) was used for non-linear regression curve fitting of the data.
Background: In a scintillation proximity assay essentially only radioactivity close to the scintillant gives light.

By GI50 is commonly meant the concentration that inhibits growth by half. One may read the IC50 as the concentration that gives 50% inhibition.

`C/C(=C\C=C\[C@H](C)c1ccccn1)[C@H]1OC(=O)C[C@H](O)CC[C@@](C)(O)[C@@H](OC(=O)N2CCN(C3CCCCCC3)CC2)/C=C/[C@@H]1C`: the 50% growth inhibitory concentration (GI50) is 65 nM in test [1], over 1000 nM in test [2] and 71.8 nM in test [3]. Besides, the Emax in test [3] was -90%. Besides, the IC50 on SF3b complexes worked out at 5.95 nM.
The like results for `C/C(=C\C=C\[C@H](C)c1nccc(C)n1)[C@H]1OC(=O)C[C@H](O)CC[C@@](C)(O)[C@@H](OC(=O)N2CCN(C3CCCCCC3)CC2)/C=C/[C@@H]1C` were, in that order, 125 nM, over 1000 nM, 101 nM, -76.7% and 9.7 nM.
The like results for `C/C(=C\C=C\C(C)c1cnccn1)[C@H]1OC(=O)C[C@H](O)CC[C@@](C)(O)[C@@H](OC(=O)N2CCN(C3CCCCCC3)CC2)/C=C/[C@@H]1C` (some centres unmarked) were, in that order, 31.9 nM, over 10000 nM, 22.1 nM, -93.7% and 6.37 nM.
Take `C/C(=C\C=C\[C@@H](C)COC(=O)N1CC[C@@H](O)C1)[C@H]1NC(=O)CCCCC[C@@H](OC(=O)N2CCN(C)CC2)/C=C/[C@@H]1C`: the GI50 was 376 nM in test [1], over 10000 nM in test [2] and 1180 nM in test [3]. The Emax in test [3] stood at 19.1%. The IC50 on SF3b complexes is 267 nM.
As to `CC(=O)O[C@H]1/C=C/[C@H](C)[C@@H](/C(C)=C/C=C/[C@@H](C)COC(=O)N2CCCCC2)OC(=O)C[C@H](O)CC[C@@]1(C)O`, the concentration for 50% growth inhibition (GI50) in test [1] was 49.7 nM; in test [2], over 10000 nM; in test [3], 82.2 nM. Also, the Emax in test [3] was -74.6%. In addition, the IC50 on SF3b complexes came out at 15 nM.
In the case of `C/C(=C\C=C\[C@@H](C)COC(=O)N1CCCC1)[C@H]1OC(=O)CCCC[C@@](C)(O)[C@@H](OC(=O)N2CCN(C)CC2)/C=C/[C@@H]1C`, the figures for the concentration for 50% growth inhibition (GI50) in test [1], in test [2] and in test [3] were 4.92 nM, over 1000 nM and 2.38 nM, respectively. For the same compound, the Emax in test [3] is -91.4%. The concentration for half-maximal inhibition (IC50) on SF3b complexes was found to be 1.67 nM.
For `C/C(=C\C=C\[C@@H](C)c1ccccn1)[C@H]1OC(=O)C[C@H](O)CC[C@H](C)[C@@H](OC(=O)N(C)C)/C=C/[C@@H]1C`, the values for the 50% growth inhibitory concentration (GI50) in test [1], in test [2] and in test [3] were 479 nM, over 10000 nM and 1720 nM, respectively. Besides, the Emax in test [3] was determined as 24%. The IC50 at SF3b complexes was determined as 142 nM.
The like results for `C/C(=C\C=C\[C@@H](C)c1ccccn1)[C@H]1OC(=O)C[C@H](O)CC[C@@](C)(O)[C@@H](OC(=O)N2CCN(C3CCOCC3)CC2)/C=C/[C@@H]1C` were, in that order, 53.1 nM, over 1000 nM, 37.2 nM, -87.7% and 8.56 nM.
Consider `CC(=O)O[C@H]1/C=C/[C@H](C)[C@@H](/C(C)=C/C=C/[C@@H](C)COC(=O)N2CCCC2)OC(=O)C[C@H](O)CC[C@@]1(C)O`, for which the values for the GI50 in test [1], in test [2] and in test [3] were 4.83 nM, over 1000 nM and 20.1 nM, respectively. Moreover, in test [3], the Emax is -94.1%. Besides, on SF3b complexes, the IC50 worked out at 2.75 nM.
The like results for `CC[C@H](O)[C@@H](C)[C@H]1O[C@@H]1C[C@@](C)(O)/C=C/C=C(\C)[C@H]1OC(=O)C[C@H](O)CC[C@H](C)[C@@H](OC(C)=O)/C=C/[C@@H]1C` were, in that order, 2.14 nM, 822 nM, 4.88 nM, -65.3% and 5.28 nM.
With `COC[C@H]1CCCN1C(=O)OC[C@H](C)/C=C/C=C(\C)[C@H]1OC(=O)C[C@H](O)CC[C@@](C)(O)[C@@H](OC(C)=O)/C=C/[C@@H]1C`, the GI50 was 71.6 nM in test [1], over 1000 nM in test [2] and 76.5 nM in test [3]. Further, in test [3], the Emax was -90.9%. Also, the concentration for half-maximal inhibition (IC50) at SF3b complexes was found to be 60.7 nM.
For `C/C(=C\C=C\[C@@H](C)COC(=O)N1CCC[C@H]1CO)[C@H]1OC(=O)CCCCC[C@@H](OC(=O)N2CCN(CC(F)(F)F)CC2)/C=C/[C@@H]1C`, the GI50 in test [1] was 65.5 nM; in test [2] it was over 1000 nM; in test [3] it was 54.7 nM. In test [3], the Emax is -85.6%. Also, the IC50 on SF3b complexes is 113 nM.
For `C/C(=C\C=C\[C@@H](C)c1ccccn1)[C@H]1OC(=O)C[C@H](O)CC[C@@](C)(O)[C@@H](OC(=O)N2CCOCC2)/C=C/[C@@H]1C`, the GI50 was over 1000 nM in test [1], over 1000 nM in test [2] and 2550 nM in test [3]. Further, the Emax in test [3] is 35.3%. The IC50 at SF3b complexes amounted to 480 nM.
With `C/C(=C\C=C\[C@@H](C)c1cccnc1)[C@H]1OC(=O)C[C@H](O)CC[C@@](C)(O)[C@@H](OC(=O)N2CCN(C3CCCCCC3)CC2)/C=C/[C@@H]1C`, the values for the GI50 in test [1], in test [2] and in test [3] were 13.2 nM, over 1000 nM and 11 nM, respectively. Besides, in test [3], the Emax is -95.6%. For the same compound, the IC50 on SF3b complexes is 2.34 nM.
The like results for `C/C(=C\C=C\[C@@H](C)COC(=O)N1CCCC1)[C@H]1OC(=O)CCCCC[C@@H](OC(=O)N2CCN(C)CC2)/C=C/[C@@H]1C` were, in that order, 7.84 nM, 2440 nM, 6.74 nM, -90.5% and 3.71 nM.
Turning to `C/C(=C\C=C\[C@@H](C)COC(=O)N1CC[C@@H](C(=O)O)C1)[C@H]1OC(=O)C[C@H](O)CC[C@@](C)(O)[C@@H](OC(=O)N2CCN(C3CCCCCC3)CC2)/C=C/[C@@H]1C`, the concentration for 50% growth inhibition (GI50) in test [1] was 692 nM; in test [2], over 1000 nM; in test [3] it was 108 nM. For the same compound, in test [3], the Emax is -58.3%. Moreover, the half-inhibitory concentration (IC50) at SF3b complexes turned out to be 2.25 nM.
For the compound `C/C(=C\C=C\C(C)c1ncccn1)[C@H]1OC(=O)C[C@H](O)CC[C@@](C)(O)[C@@H](OC(=O)N2CCN(C)CC2)/C=C/[C@@H]1C` (some centres unmarked), the 50% growth inhibitory concentration (GI50) in test [1] is 60.1 nM; in test [2] it was over 1000 nM; in test [3], 155 nM. In addition, the Emax in test [3] is -22.2%. Moreover, the IC50 at SF3b complexes turned out to be 38.4 nM.
For the compound `CC(=O)O[C@H]1/C=C/[C@H](C)[C@@H](/C(C)=C/C=C/[C@@H](C)COC(=O)N(C)C(C)C)OC(=O)C[C@H](O)CC[C@@]1(C)O`, the 50% growth inhibitory concentration (GI50) in test [1] was 32.6 nM; in test [2], over 10000 nM; in test [3], 54.6 nM. Besides, in test [3], the Emax was -87.4%. In addition, the half-maximal inhibitory concentration (IC50) at SF3b complexes was 4.85 nM.
In the case of `CC[C@H](OC(C)=O)[C@@H](C)[C@H]1O[C@@H]1C[C@@](C)(O)/C=C/C=C(\C)[C@H]1OC(=O)C[C@H](O)CC[C@@](C)(O)[C@@H](OC(=O)N2CCN(C3CCCCCC3)CC2)/C=C/[C@@H]1C`, the GI50 in test [1] came out at 2 nM; in test [2], 132 nM; in test [3], 2.41 nM. For the same compound, the Emax in test [3] was -78.6%. Further, the IC50 at SF3b complexes is 5.85 nM.
For `CCO[C@]1(C)CC[C@@H](O)CC(=O)O[C@H](/C(C)=C/C=C/[C@](C)(O)C[C@H]2O[C@@H]2[C@H](C)[C@@H](O)CC)[C@@H](C)/C=C/[C@@H]1OC(=O)N1CCNCC1`, in test [3], the Emax is -75.4% and the concentration for 50% growth inhibition (GI50) was 1.76 nM. Also, the IC50 on SF3b complexes was found to be 9.23 nM.
For `CC[C@H](O)[C@@H](C)[C@H]1O[C@@H]1C[C@@](C)(O)/C=C/C=C(\C)[C@H]1OC(=O)C[C@H](O)CC[C@@](C)(OC(=O)N2CCNCC2)[C@@H](OC(C)=O)/C=C/[C@@H]1C`, in test [3], the Emax was -74.2% and the GI50 was 23.5 nM. Also, the half-maximal inhibitory concentration (IC50) on SF3b complexes was 5.92 nM.
`C/C(=C\C=C\C(C)c1cccnc1)[C@H]1OC(=O)C[C@H](O)CC[C@@](C)(O)[C@@H](OC(=O)N2CCC(N3CCC(F)(F)CC3)CC2)/C=C/[C@@H]1C` (some centres unmarked): in test [3], the Emax is -2.9% and the GI50 was 94.8 nM. In addition, on SF3b complexes, the 50% inhibitory concentration (IC50) was 30.9 nM.
As for `CC[C@H](O)[C@@H](C)[C@H]1O[C@@H]1C[C@@](C)(O)/C=C/C=C(\C)[C@H]1OC(=O)C[C@H](O)CC[C@@](C)(OC(C)=O)[C@@H](OC(=O)N2CCNCC2)/C=C/[C@@H]1C`, in test [3], the Emax is -73.2% and the 50% growth inhibitory concentration (GI50) stood at 26.8 nM. For the same compound, the IC50 on SF3b complexes is 8.78 nM.
Consider `CC[C@H](O)[C@@H](C)[C@H]1O[C@@H]1C[C@H](C)/C=C/C=C(\C)[C@H]1OC(=O)C[C@H](O)CC[C@@](C)(OC(C)=O)[C@@H](OC(=O)N2CCNCC2)/C=C/[C@@H]1C`, for which, in test [3], the Emax is -47.1% and the 50% growth inhibitory concentration (GI50) amounted to 2.05 nM. Moreover, at SF3b complexes, the IC50 worked out at 2.12 nM.
